Test system: 596521-263-R-J1-PDC complex spheroids, viability % of control
Assay: Anticancer human tumor 596521-263-R-J1-PDC patient-derived soft tissue sarcoma cell line growth inhibition [GQUAD]
Conditions: for IC50: curve of first compound; for viability, T/C: stronger effect = lower value
Text: DNA G-quadruplex Stabilizer Agents in Combinations in Complex Spheroids
A high-throughput screen of multi-cell type tumor spheroids was designed to identify active combinations of DNA G-quadruplex stabilizer agents and targeted small molecules. Complex spheroids include a stromal component modeled by human endothelial cells (HUVEC) and fibroblasts modeled by human mesenchymal stem cells (MSCs). The concentration ranges selected for each drug and investigational agent were based upon clinically achievable concentrations if the clinical Cmax of the agent was known.
Compounds. The drugs and investigational agents: pidnarulex (CX-5461; NSC782164), APTO-253 (NSC789042), BRACO-19 (NSC847499), peposertib (NSC802822), ceralasertib (NSC780249), elimusertib (NSC800525), camonsertib (NSC841442), AZD-1390 (NSC803789), olaparib (NSC753686), talazoparib (NSC767125), ART-558 (NSC835418), sotorasib (NSC818433), MRTX-1133 (NSC836407), SN-38 (NSC673596), topotecan (NSC609699), etoposide (NSC141540), doxorubicin (NSC123127), gemcitabine (NSC613327), 5-fluorouracil (NSC19893), paclitaxel (NSC125973), vemurafenib (NSC761431), panobinostat (NSC761190), R-306465 (JNJ-16241199; NSC773264), adavosertib (NSC754352), TP-3654 (NSC805149), carboplatin (NSC241240), KSQ-4279 (NSC840948), and staurosporine (NSC755774) were obtained from the National Cancer Institute (NCI) Developmental Therapeutics Program Chemical Repository (34). The FDA-approved anticancer drug set is available from the NCI Developmental Therapeutics Program. […] The stock solutions were prepared in dimethyl sulfoxide (DMSO, Sigma-Aldrich, St. Louis, MO, cat. D2650) at 800-fold the tested concentration and stored at -70 degrees C prior to their use. All drugs and investigational agents were tested over a range starting from a high concentration at or near the clinical Cmax and decreasing in half-log increments. If the clinical Cmax for an agent had not been determined, the highest concentration tested was 10 microM.
2.3 Cell Culture. All cells were maintained in an incubator at 37 degrees C and 5% CO2 with 95% humidity. The PDC lines were cultured according to standard operating procedures established by the NCI PDMR. All PDCs were thawed and cultured in Matrigel-coated flasks prepared with a working solution of 1X Ham's F-12 nutrient mix, without supplementation (Invitrogen, cat. 11765054), 100 U/mL penicillin-streptomycin (Invitrogen, cat. 15140122), and 2.5% Matrigel (Corning Inc., cat. 354248) for the first three passages. The 857933-349-R-J2-PDC line was cultured in 6C/Colon 1B media, which includes advanced DMEM/F-12 (Thermo Fisher Scientific, cat. 12634028), 10 mM HEPES (Thermo Fisher Scientific, cat. 15630080), 1X GlutaMAX supplement (Thermo Fisher Scientific, cat. 35050061), 0.1 mg/mL primocin (InvivoGen, cat. ant-pm-2), 10% defined fetal bovine serum, heat inactivated (HyClone Laboratories Inc., cat. SH30070.03HI), 50% L-WRN conditioned media (ATCC, cat. CRL-3276), 1.25 mM N-Acetyl-L-cysteine (Sigma-Aldrich, cat. A9165), 10 mM nicotinamide (Sigma-Aldrich, cat. N0636), 1X B-27 supplement (Thermo Fisher Scientific, cat. 17504044), 1X N-2 supplement (Thermo Fisher Scientific, cat. 17502048), 10 microM Y-27632 dihydrochloride (Tocris Bioscience, cat. 1254), and 50 ng/mL human EGF recombinant protein (Thermo Fisher Scientific, cat. PHG0311). The 485176-168-R4-J1-PDC line was cultured in Panc media, which includes all 6C/Colon 1B media components plus 100 ng/mL human FGF-10 (Thermo Fisher Scientific, cat. 100-26), 500 nM SB-431542 (Selleckchem, cat. S1067), and gastrin (Tocris, cat. 3006).
[…]
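Further: spheroids exposed to drugs for 7 days before viability reading.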

COc1cc(C2c3cc4c(cc3C(OC3OC5COC(C)OC5C(O)C3O)C3COC(=O)C23)OCO4)cc(OC)c1O (configuration not stated) + CN(C)c1ccc(Nc2c3ccc(NC(=O)CCN4CCCC4)cc3nc3cc(NC(=O)CCN4CCCC4)ccc23)cc1
IC50 (second compound 0.0316 µM): 3.59 µM | IC50 (second compound 0.1 µM): 8.19 µM | IC50 (second compound 0.316 µM): > 10 µM | IC50 (second compound 1 µM): 2.75 µM | IC50 (second compound 3.16 µM): 3.12 µM | IC50 (second compound 10 µM): 4.29 µM | viability, T/C (second compound 0.0316 µM, first compound 0.0316 µM): 101% | viability, T/C (second compound 0.0316 µM, first compound 0.1 µM): 96.2% | viability, T/C (second compound 0.0316 µM, first compound 0.316 µM): 84.5% | viability, T/C (second compound 0.0316 µM, first compound 1 µM): 59.8% | viability, T/C (second compound 0.0316 µM, first compound 3.16 µM): 56.8% | viability, T/C (second compound 0.0316 µM, first compound 10 µM): 40.3% | viability, T/C (second compound 0.1 µM, first compound 0.0316 µM): 111% | viability, T/C (second compound 0.1 µM, first compound 0.1 µM): 96.6% | viability, T/C (second compound 0.1 µM, first compound 0.316 µM): 85% | viability, T/C (second compound 0.1 µM, first compound 1 µM): 70.6% | viability, T/C (second compound 0.1 µM, first compound 3.16 µM): 57.8% | viability, T/C (second compound 0.1 µM, first compound 10 µM): 48.5% | viability, T/C (second compound 0.316 µM, first compound 0.0316 µM): 96.4% | viability, T/C (second compound 0.316 µM, first compound 0.1 µM): 107% | viability, T/C (second compound 0.316 µM, first compound 0.316 µM): 82.7% | viability, T/C (second compound 0.316 µM, first compound 1 µM): 67.2% | viability, T/C (second compound 0.316 µM, first compound 3.16 µM): 56.8% | viability, T/C (second compound 0.316 µM, first compound 10 µM): 47.8% | viability, T/C (second compound 1 µM, first compound 0.0316 µM): 95.9% | viability, T/C (second compound 1 µM, first compound 0.1 µM): 92.8% | viability, T/C (second compound 1 µM, first compound 0.316 µM): 94.6% | viability, T/C (second compound 1 µM, first compound 1 µM): 72.3% | viability, T/C (second compound 1 µM, first compound 3.16 µM): 47% | viability, T/C (second compound 1 µM, first compound 10 µM): 46.6% | viability, T/C (second compound 3.16 µM, first compound 0.0316 µM): 95.9% | viability, T/C (second compound 3.16 µM, first compound 0.1 µM): 94.9% | viability, T/C (second compound 3.16 µM, first compound 0.316 µM): 85% | viability, T/C (second compound 3.16 µM, first compound 1 µM): 63.9% | viability, T/C (second compound 3.16 µM, first compound 3.16 µM): 49.7% | viability, T/C (second compound 3.16 µM, first compound 10 µM): 46.6% | viability, T/C (second compound 10 µM, first compound 0.0316 µM): 68% | viability, T/C (second compound 10 µM, first compound 0.1 µM): 63.6% | viability, T/C (second compound 10 µM, first compound 0.316 µM): 67.1% | viability, T/C (second compound 10 µM, first compound 1 µM): 55.5% | viability, T/C (second compound 10 µM, first compound 3.16 µM): 54% | viability, T/C (second compound 10 µM, first compound 10 µM): 42.9%

From PubChem BioAssay AID2060500 (Molecular Pharmacology Branch, DTP, NCI, 2025)
